Measurements reported in publication PMC7435983, “Galantamine-Curcumin Hybrids as Dual-Site Binding Acetylcholinesterase Inhibitors” (Molecules, 2020).
Where two headings read alike, the source gives them in different places. Marks after values point to notes of the source that are not given here.

Assays:
Neuro-2A cells [1] = assay: Neurotoxicity test, MTT-dye reduction assay; assay type: cell-based, Murine; conditions: Mus musculus, N2a, 72-h incubation
Protocol: The neurotoxicity of the GAL-CU hybrids was tested on Neuro-2A cells, as described in Materials and methods. […] Only five of the hybrids were less toxic than CU. One of them, compound 8b, is among the best-scored compounds; two of them, compounds 4e and 4f, are from the middle GoldScore range; and two of them, compounds 4a and 4b, belong to the low GoldScore range.
Murine neuroblastoma Neuro-2A cells (German collection DSMZ, Braunschweig, Germany) were cultivated under standard conditions: complete medium (90% DMEM, 10% heat-inactivated FBS, and non-essential amino acids); 37 °C and 5% CO2 in fully humidified atmosphere. The cell line was kept in the logarithmic growth phase by splitting 1:4 once a week using trypsin/EDTA. About 30% of the cells grew like neuronal cells. For the experimental evaluation of the cytotoxicity Neuro-2A, cells were plated in 96-well flat-bottomed cell culture plates at the recommended density of 1 × 10^6 cells/25cm^2. After 24 h, the cells were treated with various concentrations of the investigational compounds, and after 72-h incubation, an MTT-dye reduction assay was performed. Briefly, at the end of incubation, an MTT stock solution (10mg/mL in PBS) was added (0.01 mL/well). Plates were further incubated at 37 °C for 4 h. Next, the formazan crystals were dissolved by the addition of 0.110 mL/well 5% formic acid in 2-propanol (v/v). Absorption was measured at 580nm wavelength on an automated ELISA reader Labexim LMR1. At least six wells per concentration were used, and data were processed using the GraphPad Prism 5.0 software 2.0 (San Diego, CA, USA).

[2] = target: eeAChE (Electrophorus electricus AChE) (Electrophorus electricus, UniProt O42275); assay: biochemical
eeAChE (Electrophorus electricus AChE), sequence (O42275 24-633): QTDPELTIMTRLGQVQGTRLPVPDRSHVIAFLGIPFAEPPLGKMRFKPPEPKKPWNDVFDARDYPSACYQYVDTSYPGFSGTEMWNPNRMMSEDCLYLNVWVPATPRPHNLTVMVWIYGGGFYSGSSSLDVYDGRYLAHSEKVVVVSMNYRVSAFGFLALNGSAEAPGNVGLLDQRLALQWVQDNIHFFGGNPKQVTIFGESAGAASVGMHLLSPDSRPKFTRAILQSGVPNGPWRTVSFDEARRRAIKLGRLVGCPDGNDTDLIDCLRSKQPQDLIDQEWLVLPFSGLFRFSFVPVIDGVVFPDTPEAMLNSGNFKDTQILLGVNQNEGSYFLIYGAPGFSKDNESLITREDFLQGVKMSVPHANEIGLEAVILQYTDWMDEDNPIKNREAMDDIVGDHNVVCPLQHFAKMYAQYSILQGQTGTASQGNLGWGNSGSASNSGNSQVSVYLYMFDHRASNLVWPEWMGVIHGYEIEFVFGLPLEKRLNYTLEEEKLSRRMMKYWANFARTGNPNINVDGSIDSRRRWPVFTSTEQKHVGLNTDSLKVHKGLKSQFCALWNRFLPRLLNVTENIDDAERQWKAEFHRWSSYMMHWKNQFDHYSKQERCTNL
Protocol: As the docking studies were performed on rhAChE, while for the in vitro measurements was used AChE from electric eel (eeAChE), it was reasonably to question their relevance.
AChE activity was assayed as described by Ellman et al., with some modifications. […] The mixtures were incubated for 30 min at room temperature before the addition of 30 μL of the substrate solution (15 μL […], 15 μL 0.6 mM ATCI in buffer, pH 7.6).

[3] = Prediction of PK parameters by QSPR models
Text: The key PK parameters were predicted by quantitative […] (QSPRs) models derived previously. Three PK parameters were modelled: the steady state volume of distribution (VD^ss), free fraction of drug in plasma (fu) and unbound clearance (CLu). […]

[4] = cited from earlier work
Neuro-2A cells [5] = conditions: cited from earlier work

Compound: COc1ccc2c3c1O[C@H]1C[C@@H](O)C=C[C@@]31CCN(CCCCC(=O)/C=C/c1ccccc1)C2 [4a]
- IC50 (Neuro-2A cells [1]): 30.7 µM
- IC50 [2]: 0.046 µM
- Times More Active Than GAL [2]: 75

Compound: COc1ccc(/C=C/C(=O)CCCCN2CC[C@@]34C=C[C@H](O)C[C@@H]3Oc3c(OC)ccc(c34)C2)cc1 [4b]
- IC50 (Neuro-2A cells [1]): 52.5 µM
- IC50 [2]: 0.02 µM
- Times More Active Than GAL [2]: 186

Compound: COc1cccc(/C=C/C(=O)CCCCN2CC[C@@]34C=C[C@H](O)C[C@@H]3Oc3c(OC)ccc(c34)C2)c1 [4c]
- IC50 (Neuro-2A cells [1]): 24.1 µM

Compound: COc1ccc2c3c1O[C@H]1C[C@@H](O)C=C[C@@]31CCN(CCCCC(=O)/C=C/c1ccc3c(c1)OCO3)C2 [4e]
- IC50 (Neuro-2A cells [1]): 42.9 µM
- IC50 [2]: 0.036 µM
- Times More Active Than GAL [2]: 98

Compound: COc1ccc2c3c1O[C@H]1C[C@@H](O)C=C[C@@]31CCN(CCCCC(=O)/C=C/c1ccc(C)cc1)C2 [4f]
- IC50 (Neuro-2A cells [1]): 34.4 µM
- IC50 [2]: 0.033 µM
- Times More Active Than GAL [2]: 110

Compound: COc1ccc2c3c1O[C@H]1C[C@@H](O)C=C[C@@]31CCN(CCCCC(=O)/C=C/c1cccc(C)c1)C2 [4g]
- IC50 (Neuro-2A cells [1]): 23.7 µM

Compound: COc1ccc2c3c1O[C@H]1C[C@@H](O)C=C[C@@]31CCN(CCCCC(=O)/C=C/c1ccc(C)c(C)c1)C2 [4h]
- IC50 (Neuro-2A cells [1]): 21.9 µM

Compound: COc1ccc2c3c1O[C@H]1C[C@@H](O)C=C[C@@]31CCN(Cc1cccc(/C=C/C(=O)c3ccccc3)c1)C2 [6a]
- IC50 (Neuro-2A cells [1]): 12.1 µM

Compound: COc1ccc(C(=O)/C=C/c2cccc(CN3CC[C@@]45C=C[C@H](O)C[C@@H]4Oc4c(OC)ccc(c45)C3)c2)cc1 [6b]
- IC50 (Neuro-2A cells [1]): 7.91 µM

Compound: COc1ccc(/C=C/C(=O)c2cccc(CN3CC[C@@]45C=C[C@H](O)C[C@@H]4Oc4c(OC)ccc(c45)C3)c2)cc1 [8b]
- IC50 (Neuro-2A cells [1]): 28.9 µM
- IC50 [2]: 0.086 µM
- Times More Active Than GAL [2]: 41

Compound: COc1cccc(/C=C/C(=O)c2cccc(CN3CC[C@@]45C=C[C@H](O)C[C@@H]4Oc4c(OC)ccc(c45)C3)c2)c1 [8c]
- IC50 (Neuro-2A cells [1]): 25.6 µM

Compound: COc1ccc2c3c1O[C@H]1C[C@@H](O)C=C[C@@]31CCN(Cc1cccc(C(=O)/C=C/c3ccc(C)cc3)c1)C2 [8f]
- IC50 (Neuro-2A cells [1]): 24.3 µM

Compound: COc1ccc2c3c1O[C@H]1C[C@@H](O)C=C[C@@]31CCN(Cc1cccc(C(=O)/C=C/c3cccc(C)c3)c1)C2 [8g]
- IC50 (Neuro-2A cells [1]): 17.8 µM

Compound: COc1ccc2c3c1O[C@H]1C[C@@H](O)C=C[C@@]31CCN(Cc1cccc(C(=O)/C=C/c3ccc(C)c(C)c3)c1)C2 [8h]
- IC50 (Neuro-2A cells [1]): 25 µM

Compound: COc1cc(/C=C/C(=O)CC(=O)/C=C/c2ccc(O)c(OC)c2)ccc1O [CU, (1E,6E)-1,7-Bis(4-hydroxy-3-methoxyphenyl)hepta-1,6-diene-3,5-dione, reference compound]
- IC50 (Neuro-2A cells [1]): 26.3 µM

Compound: COc1ccc2c3c1O[C@H]1C[C@@H](O)C=C[C@@]31CCN(C)C2 [GAL, Galantamine]
- half-life [3]: 4.74 h
- VDss [4]: 2.30 ^a L/kg
- fu ([4]; free fraction of drug in plasma): 0.83 ^a
- CL ([4]; total clearance): 0.336 ^a L/h/kg
- IC50 (Neuro-2A cells [5]): > 50 µM
